Some results are limits rather than exact numbers.

In assay [1] the test system is HAP1 MTAP-intact cell line. The assay can be described thus: SDMA in-cell western assay, HAP1 MTAP-intact. The class given is cell-based. As to conditions: Homo sapiens. An outline of the steps: (§1)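 Symmetric dimethylarginine (SDMA) levels were measured by in-cell western in an isogenic HAP1 pair. One line expresses endogenous MTAP and the other is MTAP-null, with an IC50 derived in each.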

The test system of assay [2] is HAP1 MTAP-deleted cell line. The assay is described as follows: SDMA in-cell western assay, HAP1 MTAP-deleted. In kind it is cell-based. As to conditions: for IC50: Homo sapiens, HAP1 MTAP-deleted (MTAP-null) cell line; for MTAP Intact/Deleted Ratio: IC50 ratio HAP1 MTAP-intact / HAP1 MTAP-deleted, >=3 fold considered MTAP-selective. An outline of the steps: as §1
Assay [3] addresses T1, PRMT5 (Homo sapiens, UniProt O14744).
T1 construct: purchased Viva (custom protein)
The assay is described as follows: PRMT5 inhibition assay with no cofactor. In kind it is biochemical. As to conditions: against PRMT5 with no cofactor; read-out: No Co-factor IC50.

The target of assay [4] is T1, PRMT5. The assay can be described thus: PRMT5 inhibition assay with SAM as cofactor. The note with it: against PRMT5 in the presence of SAM as cofactor. In kind it is biochemical. From the text: (§2) The Ki values can be calculated from the IC50 values as described in the Examples section. As detailed in the Examples section, for the assay performed in the presence of SAM, IC50=Ki×1.5 (Ki=IC50/1.5). For the assay performed in the presence of MTA, IC50=Ki×13.5 (Ki=IC50/13.5). Column 6 indicates the ratio between the Ki of compounds in the presence of SAM and the Ki of compounds in the presence of MTA

Assay [5] has as its target T1, PRMT5. The assay can be described thus: PRMT5 inhibition assay with MTA as cofactor. In kind it is biochemical. As to conditions: for IC50: against PRMT5 with MTA as cofactor; for SAM/MTA Ratio: ratio of Ki in the presence of SAM to Ki in the presence of MTA, Ki=IC50/1.5 (SAM), Ki=IC50/13.5 (MTA).
Excerpt: as §2

T1 sequence (O14744 whole entry): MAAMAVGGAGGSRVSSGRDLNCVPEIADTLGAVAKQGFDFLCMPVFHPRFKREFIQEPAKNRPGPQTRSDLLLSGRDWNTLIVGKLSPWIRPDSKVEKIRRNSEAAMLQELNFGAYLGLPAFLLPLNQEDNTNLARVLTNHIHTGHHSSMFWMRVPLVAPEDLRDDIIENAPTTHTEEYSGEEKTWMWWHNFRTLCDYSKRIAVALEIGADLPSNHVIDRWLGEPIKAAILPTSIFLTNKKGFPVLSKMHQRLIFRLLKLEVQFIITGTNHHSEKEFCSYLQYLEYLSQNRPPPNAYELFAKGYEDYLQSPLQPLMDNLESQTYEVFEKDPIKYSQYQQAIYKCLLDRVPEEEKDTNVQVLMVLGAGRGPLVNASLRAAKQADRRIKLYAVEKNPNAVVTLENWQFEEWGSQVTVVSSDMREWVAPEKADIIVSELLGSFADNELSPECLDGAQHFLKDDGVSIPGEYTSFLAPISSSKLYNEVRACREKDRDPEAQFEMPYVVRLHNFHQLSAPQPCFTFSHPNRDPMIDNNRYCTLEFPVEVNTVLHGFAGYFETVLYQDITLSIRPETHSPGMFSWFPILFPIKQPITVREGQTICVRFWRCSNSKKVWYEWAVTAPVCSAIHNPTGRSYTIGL
T1 sequence (Q9BQA1 whole entry partner): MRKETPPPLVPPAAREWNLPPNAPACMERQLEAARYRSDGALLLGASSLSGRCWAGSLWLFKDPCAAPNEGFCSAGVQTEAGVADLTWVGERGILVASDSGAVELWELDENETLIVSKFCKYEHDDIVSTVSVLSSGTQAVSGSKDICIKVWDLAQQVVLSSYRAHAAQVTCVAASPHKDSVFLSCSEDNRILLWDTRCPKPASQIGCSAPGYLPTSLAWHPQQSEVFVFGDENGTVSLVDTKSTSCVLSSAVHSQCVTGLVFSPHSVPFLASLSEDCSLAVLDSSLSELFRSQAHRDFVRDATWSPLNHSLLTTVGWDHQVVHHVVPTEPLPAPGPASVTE

On to `CC(=O)N1CC(Nc2cc(C(=O)NC[C@@H](O)[C@@H]3Cc4ccc(OCc5ocnc5C)cc4CN3)cc(N3CCCCC3)c2)C1` [Compound 59, 3-[(1-acetylazetidin-3-yl)amino]-N-[(2R)-2-hydroxy-2-[(3S)-7-[(4-methyloxazol-5-yl)methoxy]-1,2,3,4-tetrahydroisoquinolin-3-yl]ethyl]-5-(1-piperidyl)benzamide], for which the half-inhibitory concentration (IC50) in assay [1] was at least 10000 nM; in assay [2] it was at least 10000 nM; at PRMT5 [3] it was 50 to 500 nM; at PRMT5 [4], 50 to 500 nM; against PRMT5 [5], 50 to 500 nM. For the same compound, in assay [2], the “MTAP Intact/Deleted Ratio” value was “C* (an IC50 ratio of less than 3 fold between the IC50 in the HAP1 MTAP-intact cell line and the HAP1 MTAP-deleted cell line)”. The “SAM/MTA Ratio” value on PRMT5 [5] was “A (a Ki ratio greater than or equal to 10 fold between the Ki in the presence of SAM and the Ki in the presence of MTA)”.
On to `CC(=O)N1CCC(Nc2cc(C(=O)NC[C@@H](O)[C@@H]3Cc4ccc(OCc5ocnc5C)cc4CN3)cc(N3CCCCC3)c2)CC1` [Compound 60, 3-[(1-acetyl-4-piperidyl)amino]-N-[(2R)-2-hydroxy-2-[(3S)-7-[(4-methyloxazol-5-yl)methoxy]-1,2,3,4-tetrahydroisoquinolin-3-yl]ethyl]-5-(1-piperidyl)benzamide], for which the IC50 in assay [1] was at least 10000 nM; in assay [2], 1000 to 10000 nM; at PRMT5 [3] it was 50 to 500 nM; on PRMT5 [4] it was 50 to 500 nM; at PRMT5 [5], below 50 nM. Moreover, in assay [2], the “MTAP Intact/Deleted Ratio” value is “C* (an IC50 ratio of less than 3 fold between the IC50 in the HAP1 MTAP-intact cell line and the HAP1 MTAP-deleted cell line)”. In addition, at PRMT5 [5], the “SAM/MTA Ratio” value is “A (a Ki ratio greater than or equal to 10 fold between the Ki in the presence of SAM and the Ki in the presence of MTA)”.
As to `CC(=O)N1CC(Nc2cc(C(=O)NC[C@@H](O)[C@@H]3Cc4ccc(OCc5ocnc5C)cc4CN3)nc(N3CCCC3)n2)C1` [Compound 61, 6-[(1-acetylazetidin-3-yl)amino]-N-[(2R)-2-hydroxy-2-[(3S)-7-[(4-methyloxazol-5-yl)methoxy]-1,2,3,4-tetrahydroisoquinolin-3-yl]ethyl]-2-pyrrolidin-1-yl-pyrimidine-4-carboxamide], the 50% inhibitory concentration (IC50) is at least 10000 nM in assay [1]; below 1000 nM in assay [2]; 50 to 500 nM at PRMT5 [3]; 50 to 500 nM at PRMT5 [4]; below 50 nM at PRMT5 [5]. Further, the “MTAP Intact/Deleted Ratio” value in assay [2] is “A* (an IC50 ratio greater than or equal to 10 fold between the IC50 in the HAP1 MTAP-intact cell line and the HAP1 MTAP-deleted cell line)”. Besides, the “SAM/MTA Ratio” value on PRMT5 [5] was “A (a Ki ratio greater than or equal to 10 fold between the Ki in the presence of SAM and the Ki in the presence of MTA)”.
`Cc1ncoc1COc1ccc2c(c1)CN[C@H]([C@H](O)CNC(=O)c1cc(NC3CCC3)nc(N3CCN(C(C)C)CC3)n1)C2` [Compound 63]: the 50% inhibitory concentration (IC50) was below 1000 nM in assay [1]; below 1000 nM in assay [2]; 50 to 500 nM on PRMT5 [3]; 50 to 500 nM at PRMT5 [4]; below 50 nM against PRMT5 [5]. The “MTAP Intact/Deleted Ratio” value in assay [2] is “C* (an IC50 ratio of less than 3 fold between the IC50 in the HAP1 MTAP-intact cell line and the HAP1 MTAP-deleted cell line)”. The “SAM/MTA Ratio” value on PRMT5 [5] was “A (a Ki ratio greater than or equal to 10 fold between the Ki in the presence of SAM and the Ki in the presence of MTA)”.

Usually IC50 stands for the concentration at which inhibition is half-maximal.
